From patent publication US20050123593A1, “Liposomal encapsulation of glycosaminoglycans for the treatment of arthritic joints” (priority 2001, published 2005)

What was measured:
[1] = tested on: osteoarthritic pain; conditions: intra-articular injection; cited from earlier work
[2] = in vivo; cited from earlier work
[3] = Freeze fracture microscopy (FF-TEM) of the compositions; type: physicochemical; conditions: freeze-fracture transmission electron microscope
Experimental: The compositions were subsequently examined using a freeze-fracture transmission electron microscope (FF-TEM). FF-TEM samples of each formulation were prepared in accordance with techniques described in chapter 5 of “Low Temperature Microscopy and Analysis” by Patrick Echlin (1992). The sample was mounted between thin metal sheets and rapidly cooled with liquid propane to −196° C. The sample was then transferred under liquid nitrogen to a pre-cooled cold stage of a Balzers BAF-301 high vacuum freeze-etch unit (Techno Trade International, Lichtenstein). The sample was fractured at low temperature and etched at −150° C. to remove a surface layer of water. The fracture faces were shadowed at an angle of 45° with platinum to create selective electron contrast. A thin layer of carbon was deposited over the entire fracture surface to create a continuous replica. The replicas were then examined using a JEOL 100CX2 electron microscope (Japanese Electronic Optical Laboratories, Japan).

| Structures seen by FF-TEM [3] | Molecule | pain relief [1] | overall turnover rate t1/2 [2] |
| --- | --- | --- | --- |
| – | CCCCCCCCCCCCCCCC(=O)OC[C@H](COP(=O)([O-])OCC[N+](C)(C)C)OC(=O)CCCCCCCCCCCCCCC [DPPC, 1,2-dipalmitoyl-sn-glycero-3-phosphocholine] | reduce osteoarthritic pain | – |
| presence of string like structures | Hyaluronic acid | – | 0.5 to a few |
